Assay results: patent publication US11058690B2, “Use of cytochrome bc1 complex inhibitor in preparing pharmaceutical composition” (BEIJING WEILANZHIYUAN MEDICAL TECHNOLOGY CO., LTD., priority 2017, dated 2021)
Read-outs that look alike come from different tables or passages of the source.

Assays:
[1] = test system: rat uterine smooth muscle; assay: contraction of isolated rat uterine smooth muscle strips induced by PGF2α; format: cell-based; settings: for IC50: read-out: IC50, inhibition of uterine smooth muscle contraction; for inhibitory effect on PGF2α-induced contraction: amplitude and frequency
Procedure: Female healthy Wistar rats weighing 230-270 g were used in the experiment. At 2 days before the experiment, Diethylstilbestrol suspension was injected intraperitoneally once at 0.1 mg/kg, resulting in artificial estrus. The rats were sacrificed by cervical dislocation, and the uterus was removed by laparotomy and immediately placed in a glass plate containing Tyrode's solution. Connective and adipose tissues attached to the uterine wall were carefully peeled off, the uterus was cut open along the mesangial line and laid flat on the bottom of the glass plate, then one side of the uterus was divided into left and right uterine muscle strips by using a surgical blade along the uterine contraction band running along smooth muscle, the two ends of the uterine muscle strip on one side were ligated with wires respectively, and then transferred into a nutrient tube which was aerated with oxygen and filled with 5 ml of Tyrode's solution and preheated to 37.2±0.5° C., with a lower end fixed and an upper end connected with a tension sensor. The materials stood for 20-30 minutes, liquid was changed 2-3 times, then the uterus was given a load of 1 g and kept for 30-60 minutes until the uterus had regular contraction waves, 40 mM KCL solution was provided for 10 minutes, and the function of the uterine muscle strips was evaluated. Then the muscle strips were relaxed and washed 2-3 times with Tyrode's solution, then let stand for 30 minutes; after standing, the uterine muscle strips were given a load of 1 g and kept for 30-60 minutes, and the administration and the observation were carried out after the uterine muscle strips contracted stably (i.e. regular contraction waveforms appear in a microcomputer display screen), the changes of relevant data such as contraction tension, amplitude and area under the contraction curve of the uterine smooth muscle strips were recorded, and the drug given was evaluated. During the experiment, the working temperature of the Tyrode's solution was kept at 37.2±0.5° C., and oxygen was continuously aerated into the nutrient tube with 1-2 bubbles per second. A cumulative dosing method was adopted, and 5 μl was administered each time, from low concentration to high concentration. A final drug concentration refers to the concentration of the drug dissolved in 5 ml Tyrode's solution in a […] tube.
Fluacrypyrim (FAPM), the first strobilurin acaricide developed by BASF SE and Nippon Soda Co., Ltd., is a Qo site inhibitor of the mitochondrial cytochrome bc1 complex. […] The area under the smooth muscle contraction curve was calculated before drug intervention and 10 minutes after different doses of drug intervention respectively. A drug dose-effect curve was plotted by taking the area under the smooth muscle contraction curve caused by PGF2α as 100%, to calculate the median effective dose (IC50 value) of the drug for inhibiting uterine smooth muscle contraction.

Kunming male mice = assay: acetic acid writhing test on mice; format: in vivo, mouse; settings: for curative effect compared with indomethacin: 100 mg/Kg versus indomethacin 50 mg/Kg; for writhe starting time (reaction latency) compared with control group: FAPM and trifloxystrobin intraperitoneal, azoxystrobin intragastric
[2] = test system: Mouse mononuclear macrophage RAW 264.7; assay: nitric oxide production by LPS-stimulated macrophages (Griess assay); format: cell-based; settings: for Maximum inhibition rate: in %; for IC50: read-out: IC50, NO production
Kunming female mice [3] = assay: PGF2α-induced dysmenorrhea model in mice (diethylstilbestrol sensitization); format: in vivo, mouse; settings: for Writhe starting time / Number of writhing times: Table 8; for Number of writhing times: within 30 min
Procedure: (§1) A mouse dysmenorrhea model was established with reference to Yang L., Cao Z., Yu B. & Chai C. An in vivo mouse model of primary dysmenorrhea. Exp Anim. 2015, August 64, 295-303. Adult healthy Kunming female mice were randomly grouped, 10 mice in each group. Experimental mice were intragastrically given diethylstilbestrol 0.2 mg daily for 12 days. Different kinds and dosages of the inhibitors of the cytochrome bc1 complex were given intraperitoneally or intragastrically 30 min after the last administration. Indometacin (50 mg/kg) was injected intraperitoneally as positive control, PGF2α (1.3 mg/kg) or oxytocin (20 U/kg) was injected intraperitoneally 1 h later, and the writhe starting time (reaction latency) and the number of writhing times within 30 min were observed and recorded.

Kunming female mice [4] = assay: oxytocin-induced dysmenorrhea model in mice (diethylstilbestrol sensitization); format: in vivo, mouse; settings: for Writhe starting time / Number of writhing times: Table 9; for Number of writhing times: within 30 min
Procedure: as §1

[5] = Rattus norvegicus, 10 min, PGF2α (450 nM), area under the contraction curve 10 minutes after drug
[6] = PGF2α (450 nM), area under the contraction curve 10 minutes after drug
[7] = Table 6, 200 mg/Kg intragastric
[8] = Table 6, 200 mg/Kg intragastric, within 30 min
[9] = Mus musculus, RAW264.7, LPS 1 μg/mL, 24 h
[10] = 50 mg/Kg versus indomethacin 50 mg/Kg

`CC(C)c1c(C(=O)Nc2ccccc2)c(-c2ccccc2)c(-c2ccc(F)cc2)n1CC[C@@H](O)C[C@@H](O)CC(=O)O` [atorvastatin, reference compound] was tested. Which IC50 [1, 5] did it give?
The IC50 was 8440 ± 700 nM.

With `CNC(=O)/C(=N/OC)c1ccccc1COc1cc(C)ccc1C` [Dimoxystrobin, dimoxystrobin] as the molecule, how does the IC50 [1, 6] read?
Its IC50 is 1650 ± 120 nM.

What about the “Writhe starting time” value (Kunming male mice; 200 mg/Kg intragastric) of the same molecule?
Its value is “not prolonged”.

What about the “effect on number of writhing times” value (Kunming male mice; 200 mg/Kg intragastric) of the same molecule?
The value was “obviously inhibited”.

What about the Writhe starting time (Kunming male mice; [7]) of the same molecule?
Its Writhe starting time is 3.3 ± 0.5 min.

And the “Number of writhing times” value (Kunming male mice; [8])?
Its value is 31.5 ± 4.7.

Which “inhibitory effect on PGF2α-induced contraction” value ([1]; PGF2α (450 nM)) does the source give for `CO/C(=C/C(N)=O)[C@H](C)[C@H](/C=C/c1csc(-c2csc([C@@H](C)/C=C/C=C/C(C)C)n2)n1)OC` [Myxothiazol, myxothiazol, reference compound] here?
Its value is “strongest inhibitory effect”.

And the “IC50 values (level in words)” value ([1]; PGF2α-induced)?
The value was “nanomolar level”.

And the IC50 ([1]; PGF2α-induced)?
The IC50 was 215 nM.

What about the Maximum inhibition rate ([2]; LPS 1 μg/mL, 24 h) of the same molecule?
The Maximum inhibition rate was 95%.

What about the IC50 ([2]; LPS 1 μg/mL, 24 h) of the same molecule?
The IC50 was 2.8 nM.

`CO/N=C(/C1=NOCCO1)c1ccccc1Oc1ncnc(Oc2ccccc2Cl)c1F` [Fluoxastrobin, fluoxastrobin] was tested. Which IC50 [1, 5] did it give?
Its IC50 is 2630 ± 300 nM.

Which IC50 [1, 5] does the source give for `O=C1C(O)=C([C@H]2CC[C@H](c3ccc(Cl)cc3)CC2)C(=O)c2ccccc21` [atovaquone, reference compound] here?
Its IC50 is 8440 ± 700 nM.

How did the IC50 [1, 6] turn out when `CO/C=C(/C(=O)OC)c1ccccc1COc1cccc(C(F)(F)F)n1` [Picoxystrobin, picoxystrobin] was run?
The IC50 was 1200 ± 20 nM.

And the “Writhe starting time” value (Kunming male mice; 200 mg/Kg intragastric)?
Its value is “not prolonged”.

And the “effect on number of writhing times” value (Kunming male mice; 200 mg/Kg intragastric)?
Its value is “obviously inhibited”.

What about the Writhe starting time (Kunming male mice; [7]) of the same molecule?
The Writhe starting time was 3.3 ± 1.0 min.

What about the “Number of writhing times” value (Kunming male mice; [8]) of the same molecule?
Its value is 29.3 ± 4.7.

Which results are given for `CON=C(C(=O)OC)c1ccccc1CON=C(C)c1cccc(C(F)(F)F)c1` [trifloxystrobin]?
IC50 [1, 5]: 1770 ± 50 nM; Maximum inhibition rate ([2]; LPS 1 μg/mL, 24 h): 90.7 ± 2.9%; IC50 [2, 9]: 640 ± 210 nM; curative effect compared with indomethacin (Kunming male mice): equivalent to indomethacin at 50 mg/Kg; writhe starting time (reaction latency) compared with control group (Kunming male mice): significantly prolonged; Number of writhing times (Kunming male mice; Table 4, 50 mg/Kg intraperitoneal, within 30 min): 22.3 ± 1.2; Writhe starting time (Kunming male mice; ip, 50 mg/kg): 3.3 ± 0.5 min; Writhe starting time (Kunming male mice; ip, 100 mg/kg): 4.3 ± 1.6 min; Number of writhing times (Kunming male mice; ip, 100 mg/kg, 0.5 h): 14.0 ± 1.7; Writhe starting time (Kunming male mice; ip, 200 mg/kg): 8.5 ± 2.4 min; Number of writhing times (Kunming male mice; ip, 200 mg/kg, 0.5 h): 4.0 ± 2.3

`COC(=O)N(OC)c1ccccc1COc1ccn(-c2ccc(Cl)cc2)n1` [Pyraclostrobin, pyraclostrobin] was tested. Which IC50 [1, 5] did it give?
Its IC50 is 1050 ± 10 nM.

`CO/N=C(/C(=O)OC)c1ccccc1COc1ccccc1C` [kresoxim-methyl] was tested. Which IC50 [1, 5] did it give?
Its IC50 is 4080 ± 290 nM.

And the Maximum inhibition rate ([2]; LPS 1 μg/mL, 24 h)?
The Maximum inhibition rate was 88.7 ± 5.6%.

What about the IC50 [2, 9] of the same molecule?
The IC50 was 2770 ± 690 nM.

What about the “Writhe starting time” value (Kunming male mice; 200 mg/Kg intragastric) of the same molecule?
The value was “not prolonged”.

What about the “effect on number of writhing times” value (Kunming male mice; 200 mg/Kg intragastric) of the same molecule?
The value was “obviously inhibited”.

And the Writhe starting time (Kunming male mice; [7])?
The Writhe starting time was 3.4 ± 1.0 min.

And the “Number of writhing times” value (Kunming male mice; [8])?
The value was 33.0 ± 2.9.

For `C/C=C(C)/C=C/C=C/[C@H](OC)[C@@H](C)[C@@H](OC)[C@@H](C)CCc1oc2c(O)c(OC)cc(OC)c2c(=O)c1C` [Stigmatellin, reference compound], which “inhibitory effect on PGF2α-induced contraction” value ([1]; PGF2α (450 nM)) is on record?
The value was “strongest inhibitory effect”.

What about the “IC50 values (level in words)” value ([1]; PGF2α-induced) of the same molecule?
Its value is “nanomolar level”.

And the IC50 ([1]; Rattus norvegicus, PGF2α-induced)?
Its IC50 is 89.9 nM.

And the Maximum inhibition rate ([2]; LPS 1 μg/mL, 24 h)?
The Maximum inhibition rate was 88.3±3.9%.

And the IC50 ([2]; Mus musculus, RAW264.7, 24 h)?
The IC50 was 6.24 ± 1.15 nM.

For `CO/C=C(/C(=O)OC)c1ccccc1Oc1cc(Oc2ccccc2C#N)ncn1` [azoxystrobin], which IC50 [1, 6] is on record?
Its IC50 is 1700 ± 120 nM.

What about the Maximum inhibition rate ([2]; LPS 1 μg/mL, 24 h) of the same molecule?
Its Maximum inhibition rate is 86.7 ± 4.3%.

What about the IC50 ([2]; LPS 1 μg/mL, 24 h) of the same molecule?
Its IC50 is 1890 ± 350 nM.

What about the “curative effect compared with indomethacin” value (Kunming male mice) of the same molecule?
The value was “equivalent to indomethacin at 50 mg/Kg”.

And the “writhe starting time (reaction latency) compared with control group” value (Kunming male mice)?
Its value is “not significantly prolonged”.

And the Writhe starting time (Kunming male mice; Table 5, 50 mg/Kg intragastric)?
Its Writhe starting time is 3.2 ± 1.1 min.

And the “Number of writhing times” value (Kunming male mice; Table 5, 50 mg/Kg intragastric, within 30 min)?
Its value is 31.9 ± 3.1.

And the Writhe starting time (Kunming male mice; Table 5, 100 mg/Kg intragastric)?
Its Writhe starting time is 3.4 ± 1.8 min.

And the “Number of writhing times” value (Kunming male mice; Table 5, 100 mg/Kg intragastric, within 30 min)?
The value was 24.9 ± 4.6.

What about the Writhe starting time (Kunming male mice; Table 5, 200 mg/Kg intragastric) of the same molecule?
The Writhe starting time was 3.7 ± 1.5 min.

What about the “Number of writhing times” value (Kunming male mice; Table 5, 200 mg/Kg intragastric, within 30 min) of the same molecule?
Its value is 21.6 ± 3.5.

And the Writhe starting time (Kunming male mice; Table 5, 400 mg/Kg intragastric)?
The Writhe starting time was 3.4 ± 1.2 min.

And the “Number of writhing times” value (Kunming male mice; Table 5, 400 mg/Kg intragastric, within 30 min)?
Its value is 12.4 ± 4.2.

What about the “curative effect compared with indomethacin” value (Kunming female mice [3]; [10]) of the same molecule?
The value was “equivalent to indomethacin at 50 mg/Kg”.

And the “effect on number of writhing times” value (Kunming female mice [3]; FAPM intraperitoneal, azoxystrobin intragastric, 50, 100 and 200 mg/Kg one hour before)?
The value was “in a dose-dependent manner”.

And the Writhe starting time (Kunming female mice [3]; 50 mg/Kg intragastric)?
Its Writhe starting time is 2.1 ± 1.0 min.

And the “Number of writhing times” value (Kunming female mice [3]; 50 mg/Kg intragastric)?
Its value is 17.7 ± 1.9.

What about the Writhe starting time (Kunming female mice [3]; 100 mg/Kg intragastric) of the same molecule?
The Writhe starting time was 2.0 ± 1.1 min.

What about the “Number of writhing times” value (Kunming female mice [3]; 100 mg/Kg intragastric) of the same molecule?
The value was 12.8 ± 2.4.

What about the Writhe starting time (Kunming female mice [3]; 200 mg/Kg intragastric) of the same molecule?
Its Writhe starting time is 2.2 ± 0.8 min.

What about the “Number of writhing times” value (Kunming female mice [3]; 200 mg/Kg intragastric) of the same molecule?
The value was 10.3 ± 1.3.

What about the “curative effect compared with indomethacin” value (Kunming female mice [4]; [10]) of the same molecule?
The value was “equivalent to 50 mg/Kg of indomethacin”.

What about the Writhe starting time (Kunming female mice [4]; 50 mg/Kg intragastric) of the same molecule?
Its Writhe starting time is 3.3 ± 1.5.

And the “Number of writhing times” value (Kunming female mice [4]; 50 mg/Kg intragastric)?
Its value is 24.2 ± 4.1.

What about the Writhe starting time (Kunming female mice [4]; 100 mg/Kg intragastric) of the same molecule?
The Writhe starting time was 3.9 ± 1.5.

What about the “Number of writhing times” value (Kunming female mice [4]; 100 mg/Kg intragastric) of the same molecule?
Its value is 14.2 ± 2.2.

What about the Writhe starting time (Kunming female mice [4]; 200 mg/Kg intragastric) of the same molecule?
The Writhe starting time was 3.3 ± 1.3.

What about the “Number of writhing times” value (Kunming female mice [4]; 200 mg/Kg intragastric) of the same molecule?
Its value is 7.6 ± 1.9.

What about the “effect on number of writhing times” value (Kunming female mice [4]; intragastric 50, 100 and 200 mg/Kg) of the same molecule?
Its value is “in a dose-dependent manner”.
